Measured values: patent US20250230147A1, “LACTAMS AS CBL-B INHIBITORS” (Genentech, Inc., priority 2021, published 2025)
Where a name gives a salt, the structure may show the parent alone.

Experiments:
Cbl-b = Cbl-b (Homo sapiens (Human), UniProt Q13191); assay: Cbl-b LCK Ub TR-FRET assay (Cbl-b Lck HTRF); format: biochemical
Procedure, shortened: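 TR-FRET (340 nm excitation, 615/665 nm emission) read after adding HA-ubiquitin–UBE2D2 thioester, anti-HA-D2 and streptavidin-Eu. Beforehand, compounds incubated 60 min with biotinylated Cbl-b, then 90 min with His-LCK and ATP (1 mM in 2× mix); IC50 from 10 concentrations, DMSO high and no-LCK low controls.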

c-Cbl = c-Cbl (Homo sapiens (Human), UniProt P22681); assay: C-Cbl LCK Ub TR-FRET assay (c-cbl Lck HTRF); format: biochemical; details: for (fold-selectivity): C-cbl Lck HTRF IC50 relative to Cbl-b Lck HTRF IC50
Sequence of c-Cbl (P22681 47-435): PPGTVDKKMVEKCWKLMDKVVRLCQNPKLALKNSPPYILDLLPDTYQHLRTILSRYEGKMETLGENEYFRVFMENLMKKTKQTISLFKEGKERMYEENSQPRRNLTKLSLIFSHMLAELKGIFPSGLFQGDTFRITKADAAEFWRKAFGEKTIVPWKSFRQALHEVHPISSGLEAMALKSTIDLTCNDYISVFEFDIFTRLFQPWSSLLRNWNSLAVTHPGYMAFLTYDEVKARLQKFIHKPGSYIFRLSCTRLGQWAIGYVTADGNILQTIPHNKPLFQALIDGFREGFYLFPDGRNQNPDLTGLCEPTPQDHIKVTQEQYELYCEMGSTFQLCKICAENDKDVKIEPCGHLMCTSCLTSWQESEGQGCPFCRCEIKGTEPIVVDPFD
Procedure, shortened: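 Detection reagents added, brief spin, 20 min RT. IC50 fit normalized to no-LCK (low) and DMSO (high) controls.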

Sequence of Cbl-b (Q13191 40-426): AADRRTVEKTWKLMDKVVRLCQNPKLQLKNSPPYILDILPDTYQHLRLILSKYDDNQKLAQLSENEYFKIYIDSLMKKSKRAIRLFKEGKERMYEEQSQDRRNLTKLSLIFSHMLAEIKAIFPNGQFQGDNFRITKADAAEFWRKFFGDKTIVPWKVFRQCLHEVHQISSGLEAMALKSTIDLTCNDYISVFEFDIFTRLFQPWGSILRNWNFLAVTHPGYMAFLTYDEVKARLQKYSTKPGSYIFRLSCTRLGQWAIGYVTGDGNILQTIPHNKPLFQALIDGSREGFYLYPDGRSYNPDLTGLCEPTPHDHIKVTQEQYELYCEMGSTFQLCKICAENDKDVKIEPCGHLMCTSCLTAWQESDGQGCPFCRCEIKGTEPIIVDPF

IC50 (Cbl-b) [nM] | IC50 (c-Cbl) [nM] | (fold-selectivity) (c-Cbl) | Compound
15 | 11 | (0.72x) | CC[C@H]1CN(Cc2cc3c(c(C(F)(F)F)c2)CN(c2cccc(C4(Cc5nncn5C)CC(F)(F)C4)c2)C3=O)CCN1C [Compound 421, (S)-2-(3-(3,3-difluoro-1-((4-methyl-4H-1,2,4-triazol-3-yl)methyl)cyclobutyl)phenyl)-6-((3-ethyl-4-methylpiperazin-1-yl)methyl)-4-(trifluoromethyl)isoindolin-1-one]
20 | 25 | (1.3x) | COC(C)(C)CNCc1cc2c(c(C(F)(F)F)c1)CN(c1cccc(C3(Cc4nncn4C)CC(F)(F)C3)c1)C2=O [Compound 373, 2-(3-(3,3-difluoro-1-((4-methy-4H-1,2,4-triazol-3-yl)methyl)cyclobutyl)phenyl)-6-(((2-methoxy-2-methylpropyl)amino)methyl)-4-(trifluoromethyl)isoindolin-1-one]
4400 | 3100 | (0.70x) | CC(C)[C@H]1CN(C)CCN1Cc1cc2c(c(C(F)(F)F)c1)CN(c1cccc(C3([C@H](F)c4nncn4C4CCCCC4)COC3)c1)C2=O [Compound 455, 2-(3-(3-((S)-(4-cyclohexyl-4H-1,2,4-triazol-3-yl)fluoromethyl)oxetan-3-yl)phenyl)-6-(((S)-2-isopropyl-4-methylpiperazin-1-yl)methyl)-4-(trifluoromethyl)isoindolin-1-one]
12 | 7.1 | (0.58x) | CC(C)[C@H]1CN(Cc2cc3c(c(C(F)(F)F)c2)CN(c2cccc(C4(Cc5nncn5C)CC(F)(F)C4)c2)C3=O)CCN1C [Compound 439, (S)-2-(3-(3,3-difluoro-1-((4-methyl-4H-1,2,4-triazol-3-yl)methyl)cyclobutyl)phenyl)-6-((3-isopropyl-4-methylpiperazin-1-yl)methyl)-4-(trifluoromethyl)isoindolin-1-one]
20 | 21 | (1.1x) | Cn1cnnc1[C@H](F)C1(c2cccc(N3Cc4c(cc(CNCC5CC5)cc4C(F)(F)F)C3=O)c2)CC(F)(F)C1 [Compound 449, (R)-6-(((cyclopropylmethyl)amino)methyl)-2-(3-(3,3-difluoro-1-(fluoro(4-methyl-4H-1,2,4-triazol-3-yl)methyl)cyclobutyl)phenyl)-4-(trifluoromethyl)isoindolin-1-one]
20000 | 20000 | (1.0x) | CC(C)[C@H]1CN(C)CCN1Cc1cc2c(c(C(F)(F)F)c1)CN(c1cccc(C3([C@H](F)c4n[nH]cc4C(F)(F)F)COC3)c1)C2=O [Compound 376, 2-(3-(3-((S)-fluoro(4-(trifluoromethyl)-1H-pyrazol-3-yl)methyl)oxetan-3-yl)phenyl)-6-(((S)-2-isopropyl-4-methylpiperazin-1-yl)methyl)-4-(trifluoromethyl)isoindolin-1-one]
26 | 20 | (0.76x) | CC(C)[C@H]1CN(Cc2cc3c(c(C(F)(F)F)c2)CN(c2cccc(C4(Cc5nncn5C)CC(F)(F)C4)c2)C3=O)CCN1 [Compound 429, (S)-2-(3-(3,3-difluoro-1-((4-methyl-4H-1,2,4-triazol-3-yl)methyl)cyclobutyl)phenyl)-6-((3-isopropylpiperazin-1-yl)methyl)-4-(trifluoromethyl)isoindolin-1-one]

Continued, compound first:

Compound | IC50 (Cbl-b) [nM] | IC50 (c-Cbl) [nM] | (fold-selectivity) (c-Cbl)
Cn1cnnc1CC1(c2cccc(N3Cc4c(cc(CN5Cc6c[nH]nc6C5)cc4C(F)(F)F)C3=O)c2)CC(F)(F)C1 [Compound 105, 2-(3-(3,3-difluoro-1-((4-methyl-4H-1,2,4-triazol-3-yl)methyl)cyclobutyl)phenyl)-6-((2,6-dihydropyrrolo[3,4-c]pyrazol-5(4H)-yl)methyl)-4-(trifluoromethyl)isoindolin-1-one] | 26 | 25 | 0.93x
CC(C)[C@@H]1CNCCN1Cc1cc2c(c(C(F)(F)F)c1)CN(c1cccc(C3([C@H](F)c4nncn4C)COC3)c1)C2=O [Compound 95, 2-(3-(3-((S)-fluoro(4-methyl-4H-1,2,4-triazol-3-yl)methyl)oxetan-3-yl)phenyl)-6-(((R)-2-isopropylpiperazin-1-yl)methyl)-4-(trifluoromethyl)isoindolin-1-one] | 270 | 410 | 1.5x
Cn1cnnc1[C@H](F)C1(c2cccc(N3Cc4c(cc(CN5CCC(C)(O)CC5)cc4C(F)(F)F)C3=O)c2)COC1 [Compound 141, (R)-2-(3-(3-(fluoro(4-methyl-4H-1,2,4-triazol-3-yl)methyl)oxetan-3-yl)phenyl)-6-((4-hydroxy-4-methylpiperidin-1-yl)methyl)-4-(trifluoromethyl)isoindolin-1-one] | 91 | 120 | 1.3x
Cn1cnnc1[C@@H](F)C1(c2cccc(N3Cc4c(cc(CN5CC(C)(CO)C5)cc4C(F)(F)F)C3=O)c2)CC1 [Compound 125, (S)-2-(3-(1-(fluoro(4-methyl-4H-1,2,4-triazol-3-yl)methyl)cyclopropyl)phenyl)-6((3-(hydroxymethyl)-3-methylazetidin-1-yl)methyl)-4-(trifluoromethyl)isoindolin-1-one] | 140 | 240 | 1.7x
CC(C)[C@H]1CN(C)CCN1Cc1cc2c(c(C(F)(F)F)c1)CN(c1cc(C3(Cc4nncn4C)CCC3)cc(NC(=O)CCl)n1)C2=O [Compound 333, (S)-2-chloro-N-(6-(6-((2-isopropyl-4-methylpiperazin-1-yl)methyl)-1-oxo-4-(trifluoromethyl)isoindolin-2-yl)-4-(1-((4-methyl-4H-1,2,4-triazol-3-yl)methyl)cyclobutyl)pyridin-2-yl)acetamide] | 52 | 53 | (1.0x)
C[C@H]1CN(Cc2cc3c(c(C(F)(F)F)c2)CN(c2cccc(C4([C@@H](F)c5nncn5C)COC4)c2)C3=O)CCCO1 [Compound 118, 2-(3-(3-((R)-fluoro(4-methyl-4H-1,2,4-triazol-3-yl)methyl)oxetan-3-yl)phenyl)-6-(((S)-2-methyl-1,4-oxazepan-4-yl)methyl)-4-(trifluoromethyl)isoindolin-1-one] | 7 | 8 | 1.1x
COCC1(F)CN(Cc2cc3c(c(C(F)(F)F)c2)CN(c2cccc(C4([C@H](F)c5nncn5C)COC4)c2)C3=O)C1 [Compound 136, (S)-2-(3-(3-(fluoro(4-methyl-4H-1,2,4-triazol-3-yl)methyl)oxetan-3-yl)phenyl)-6-((3-fluoro-3-(methoxymethyl)azetidin-1-yl)methyl)-4-(trifluoromethyl)isoindolin-1-one] | 280 | 560 | 2.0x
Cn1cnnc1CC1(c2cccc(N3Cc4c(cc(C5CCN5)cc4C(F)(F)F)C3=O)c2)COC1 (centres unmarked) [Compound 13, 6-(azetidin-2-yl)-2-(3-(3-((4-methyl-4H-1,2,4-triazol-3-yl)methyl)oxetan-3-yl)phenyl)-4-(trifluoromethyl)isoindolin-1-one formate] | 320 | 540 | 
Cn1cnnc1CC1(c2cc(NCCCN3CCOCC3)nc(N3Cc4c(cc(CNC5(C)CCC5)cc4C(F)(F)F)C3=O)c2)CCC1 [Compound 303, 2-(4-(1-((4-methyl-4H-1,2,4-triazol-3-yl)methyl)cyclobutyl)-6-((3-morpholinopropyl)amino)pyridin-2-yl)-6-(((1-methylcyclobutyl)amino)methyl)-4-(trifluoromethyl)isoindolin-1-one] | 310 | 190 | (0.59x)
CC(C)[C@H]1CN(S(C)(=O)=O)CCN1Cc1cc2c(c(C(F)(F)F)c1)CN(c1cccc(C3([C@@H](F)c4nncn4C)COC3)c1)C2=O [Compound 195, 2-(3-(3-((R)-fluoro(4-methyl-4H-1,2,4-triazol-3-yl)methyl)oxetan-3-yl)phenyl)-6-(((S)-2-isopropyl-4-(methylsulfonyl)piperazin-1-yl)methyl)-4-(trifluoromethyl)isoindolin-1-one] | 53 | 110 | 2.0x
C[C@H]1CN(C)CCN1Cc1cc2c(c(C(F)(F)F)c1)CN(c1cccc(C3(Cc4nncn4C)CC(F)(F)C3)c1)C2=O [Compound 214, (S)-2-(3-(3,3-difluoro-1-((4-methyl-4H-1,2,4-triazol-3-yl)methyl)cyclobutyl)phenyl)-6-((2,4-dimethylpiperazin-1-yl)methyl)-4-(trifluoromethyl)isoindolin-1-one] | 42 | 41 | 0.96x
Cn1cnnc1CC1(c2cccc(N3Cc4c(cc(C5CCNC5)cc4C(F)(F)F)C3=O)c2)COC1.O=CO (racemic) [Compound 50, (±)-2-(3-(3-((4-methyl-4H-1,2,4-triazol-3-yl)methyl)oxetan-3-yl)phenyl)-6-(pyrrolidin-3-yl)-4-(trifluoromethyl)isoindolin-1-one formate] | 54 | 90 | 1.7x
Cn1cnnc1CC1(c2cccc(N3Cc4c(cc(CNC5(C)CC(F)C5)cc4C(F)(F)F)C3=O)c2)CC(F)(F)C1 (centres unmarked) [Compound 341, 2-(3-(3,3-difluoro-1-((4-methyl-4H-1,2,4-triazol-3-yl)methyl)cyclobutyl)phenyl)-6-(((3-fluoro-1-methylcyclobutyl)amino)methyl)-4-(trifluoromethyl)isoindolin-1-one] | 14 | 10 | (0.74x)
